Test results as given in article PMC9356275, “A quantitative high-throughput screen identifies compounds that lower expression of the SCA2-and ALS-associated gene ATXN2” (The Journal of Biological Chemistry, 2022).
Like-named read-outs stand apart in the source and are kept apart here.

Legend:
Format in all cases: cell-based, human
ATXN2-luc [1] = assay: MSSR hit retest / multiconcentration testing: ATXN2-luc luciferase assay in H2 cells (1 and 10 μM); details: luciferase, average of H2 and S1 cells expressing ATXN2-luc, rescreen; for H2&S1 ave luc 1uM: 1 uM compound; for H2&S1 ave luc 10uM: 10 uM compound
ATXN2-luc [2] = assay: MSSR pilot screen: ATXN2-luc luciferase assay (Bright-Glo) in H2 cells, single 10 μM dose; details: for SD from mean (ATXN2-luc, Z-score): H2 cells, single dose (title: 10 μM compound), overnight; for ¦Score/1SD¦: absolute score divided by 1SD (0.891 or 0.9)
ATXN2-luc [3] = assay: MSSR hit retest: ATXN2-luc luciferase assay, average of H2 and S1 cells (1 and 10 uM); design: H2&S1 ave luc 1uM / H2&S1 ave luc 10uM: scale not given here; details: for H2&S1 ave luc 10uM / activity at 10 µM: head line r3 10uM; for H2&S1 ave luc 10uM: head line r4 20 uM compound; for activity at 1 µM / activity at 10 µM / activity: Homo sapiens; for activity at 1 µM: read-out: H2&S1 ave luc 1uM; for activity at 10 µM / activity: read-out: H2&S1 ave luc 10uM
From the text: (§1) Supplement mmc2.xlsx, sheet "43 annotated compounds"

H2 and S1 cells = assay: Paired MTT viability assay, average of H2 and S1 cells (1 and 10 uM); design: H2&S1 ave MTT 1uM / H2&S1 ave MTT 10uM: unit not given here; details: for viability at 1 µM / viability at 10 µM: Homo sapiens
From the text: as §1

CMV-luc = assay: Secondary assays: CMV-luc in SC cells, Bright-Glo; details: minimum CMV-luc signal in SC cells over 12 doses; summary data
Description: (§2) Compounds were plated at 2× concentrations in phenol red–free DMEM in 25 μl in 384-well plates with each compound dose plated in triplicate. An equal volume of S2, H2, or SC cells (24,000 cells/well) suspended in phenol red–free DMEM with 10% fetal bovine serum and 1× penicillin/streptomycin were added. Cells were grown 24 h and then assayed first by using the CellTiter-Fluor reagent (20 μl) followed by the addition of Bright-Glo (65 μl) luciferase assay, using a multimode plate reader (Beckman; DT880). Values were reported as the mean ± SD with n = 3. IC50s were determined by the Hill coefficient method using an online tool (https://www.aatbio.com/tools/ic50-calculator).

ATXN2-luc [4] = assay: Secondary assays: ATXN2-luc in S2 and H2 cells, 12 doses, Bright-Glo; details: summary data
Description: The values for H2 and S2 were used as replicates to calculate IC50s and to assess cell viability.
as §2

ATXN2-luc [5] = assay: NCATS qHTS (LOPAC pilot, primary and confirmation): ATXN2-luc in S2 cells, 1536-well, Steady-Glo; details: LOPAC library screening optimization; for AC50: Homo sapiens
Description: We next performed a pilot screen assay to optimize the 1536-well qHTS using S2 cells. […] Cytotoxicity was determined using a multiplexed viability assay (CellTiter-Fluor, a fluorescence-based viability assay using Gly-Phe-7-amino-4-trifluoromethylcoumarin substrate).
CellTiter-Fluor was used to determine compound effect on cell viability, and Steady-Glo was used to measure luciferase in a multiplexed assay.
The primary assay was conducted at the NCATS NIH Chemical Genomics Center laboratory. About 4 μl of S2 cell suspension in phenol red–free DMEM was dispensed into wells of 1536-well assay plates. […] Next, SteadyGlo luciferase substrate detection reagent (3 μl) was added to each well and incubated for an additional 5 min at room temperature. Luminescence was then measured on the ViewLux imager equipped with clear filters using a 2 s exposure. All screening operations were performed on a fully integrated robotic system (Kalypsys) containing one RX-130 and two RX-90 anthropomorphic robotic arms (Stäubli). Vehicle-only plates, with DMSO being pin-transferred to columns 5 to 48, were inserted uniformly at the beginning and the end of each library in order to monitor and record any shifts in assay performance.

[6] = pilot screen at 10 µM compound, H2 cells expressing ATXN2-luc
[7] = 1 uM compound, average of H2 and S1 cells
[8] = 1 uM compound, read-out: H2&S1 ave MTT 1uM
[9] = 10 uM compound, read-out: H2&S1 ave MTT 10uM
[10] = read-out: H2&S1 ave MTT 1uM, 1 uM compound
[11] = read-out: H2&S1 ave MTT 10uM, 10 uM compound
[12] = pilot screen, H2 cells expressing ATXN2-luc, single dose printed as 10 μM compound

| Structure (SMILES) | SD from mean (ATXN2-luc, Z-score) (ATXN2-luc [2]) [SD] | SD from mean (pilot screen) (ATXN2-luc [2]; pilot screen) [SD] | SD from mean (pilot screen) (ATXN2-luc [2]; [6]) | ¦Score/1SD¦ (ATXN2-luc [2]; pilot screen) | activity at 1 µM (ATXN2-luc [3]; [7]) [%] | activity at 10 µM (ATXN2-luc [3]; average of H2 and S1 cells) [%] | viability at 1 µM (H2 and S1 cells; [8]) [%] | viability at 10 µM (H2 and S1 cells; [9]) [%] | activity at 1 µM (ATXN2-luc [3]) [%] | activity (ATXN2-luc [3]) [%] | viability at 1 µM (H2 and S1 cells; [10]) [%] | viability at 10 µM (H2 and S1 cells; [11]) [%] | also measured |
| --- | --- | --- | --- | --- | --- | --- | --- | --- | --- | --- | --- | --- | --- |
| CCN(CC)CCCCCCCCOC(=O)c1cc(OC)c(OC)c(OC)c1 [TMB-8] | -5.740 | -5.740 | -5.740 | 6.44 | – | – | – | – | – | – | – | – | H2&S1 ave luc 1uM (ATXN2-luc [1]): 66; H2&S1 ave luc 10uM (ATXN2-luc [1]): 53; H2&S1 ave luc 1uM (ATXN2-luc [3]; [7]): 66; H2&S1 ave luc 10uM (ATXN2-luc [3]; average of H2 and S1 cells): 53; H2&S1 ave MTT 1uM (H2 and S1 cells; 1 uM compound): 73.9218; H2&S1 ave MTT 10uM (H2 and S1 cells; 10 uM compound): 52.1193 |
| C/C1=C2/[N-][C@H]([C@H](CC(N)=O)[C@@]2(C)CCC(=O)NC[C@@H](C)OP(=O)([O-])O[C@H]2[C@@H](O)[C@@H](n3cnc4cc(C)c(C)cc43)O[C@@H]2CO)[C@]2(C)N=C(/C(C)=C3N=C(/C=C4N=C1[C@@H](CCC(N)=O)C\4(C)C)[C@@H](CCC(N)=O)[C@]\3(C)CC(N)=O)[C@@H](CCC(N)=O)[C@]2(C)CC(N)=O.[Co] [COBALAMINE] | -5.111 | -5.111 | -5.111 | 5.68 | – | – | – | – | – | – | – | – | H2&S1 ave luc 1uM (ATXN2-luc [1]): 126; H2&S1 ave luc 10uM (ATXN2-luc [1]): 109; H2&S1 ave luc 1uM (ATXN2-luc [3]; [7]): 126; H2&S1 ave luc 10uM (ATXN2-luc [3]; average of H2 and S1 cells): 109; H2&S1 ave MTT 1uM (H2 and S1 cells; 1 uM compound): 115.867; H2&S1 ave MTT 10uM (H2 and S1 cells; 10 uM compound): 108.02 |
| O=c1[nH]c(=O)n([C@H]2C[C@H](O)[C@@H](CO)O2)cc1C(F)(F)F [Trifluridine] | -5.158 | -5.158 | -5.158 | 5.79 | 102 | 71 | 80.3 | 53 | – | – | – | – | H2&S1 ave luc 1uM (ATXN2-luc [1]): 102 |
| CC(=O)O[C@H]1C[C@H](O[C@H]2[C@@H](O)C[C@H](O[C@H]3[C@@H](O)C[C@H](O[C@H]4CC[C@@]5(C)[C@H](CC[C@@H]6[C@@H]5C[C@@H](O)[C@]5(C)[C@@H](C7=CC(=O)OC7)CC[C@]65O)C4)O[C@@H]3C)O[C@@H]2C)O[C@H](C)[C@H]1O[C@@H]1O[C@H](CO)[C@@H](O)[C@H](O)[C@H]1O [LANATOSIDE C] | – | – | – | – | – | – | – | – | 39 | 15 | 35 | 35.6 | H2&S1 ave luc 1uM (ATXN2-luc [1]): 39; H2&S1 ave luc 10uM (ATXN2-luc [1]): 15 |
| Nc1ccc(-c2ccc3ncc4ccc(=O)n(-c5cccc(C(F)(F)F)c5)c4c3c2)cn1 [NCGC00263216-02, torin 2] | – | – | – | – | – | – | – | – | – | – | – | – | min SC luc (%) (CMV-luc): 128.375%; IC50 (ATXN2-luc [4]; ATXN2-luc luciferase assays in H2 and S2 cells, 12 doses plus a zero dose, read-out: Mean IC50): 0.257 µM; min ATXN2-luc (%) (ATXN2-luc [4]; minimum ATXN2-luc signal over 12 doses, H2 and S2 cells): 25.4183% |
| CC(=O)Oc1cccc(O)c1 [RESORCINOL MONOACETATE] | -6.242 | -6.242 | -6.242 | 6.94 | 120 | 4.6 | 115 | 19.9 | – | – | – | – | – |
| C[C@]12CC[C@H](O)C[C@H]1CC[C@@H]1[C@@H]2C[C@@H](O)[C@]2(C)[C@@H](C3=CC(=O)OC3)CC[C@]12O [Digoxigenin] | -3.264 | -3.264 | – | 3.66 | 90 | 22 | 60.4 | 31.6 | – | – | – | – | SD from mean (pilot screen) (ATXN2-luc [2]; [12]): -3.264 |
| CC(C)=CCc1c(O)cc2occ(-c3ccc4c(c3)OCO4)c(=O)c2c1O [DERRUBONE] | -3.621 | -3.621 | -3.621 | 4.02 | 11 | 15 | 107 | 101 | – | – | – | – | – |
| CC(=O)O[C@H]1CC[C@@]2(C)[C@H](CC[C@@H]3[C@@H]2CC[C@]2(C)[C@@H](C4=CC(=O)OC4)[C@@H](OC(C)=O)C[C@]32O)C1 [GITOXIGENIN DIACETATE] | -4.261 | -4.261 | -4.261 | 4.73 | – | – | – | – | 27 | 21 | 39.7 | 40.3 | – |
| C[C@@H]1O[C@@H](O[C@H]2CC[C@]3(C=O)[C@H]4CC[C@]5(C)[C@@H](C6=CC(=O)OC6)CC[C@]5(O)[C@@H]4CC[C@]3(O)C2)[C@H](O)[C@H](O)[C@H]1O [CONVALLATOXIN] | -3.689 | -3.689 | -3.689 | 4.10 | 12 | 11 | 62.2 | 70 | – | – | – | – | – |
| C[C@]12CC[C@H](O)C[C@H]1CC[C@@H]1[C@@H]2[C@H](O)C[C@]2(C)[C@@H](C3=CC(=O)OC3)CC[C@]12O [SARMENTOGENIN] | -3.539 | -3.539 | – | 3.93 | – | – | – | – | 53 | 24 | 45.8 | 41.2 | SD from mean (pilot screen) (ATXN2-luc [2]; [12]): -3.539 |
| C[C@H]1O[C@@H](O[C@H]2[C@@H](O)C[C@H](O[C@H]3[C@@H](O)C[C@H](O[C@H]4CC[C@@]5(C)[C@H](CC[C@@H]6[C@@H]5CC[C@]5(C)[C@@H](C7=CC(=O)OC7)[C@@H](O)C[C@]65O)C4)O[C@@H]3C)O[C@@H]2C)C[C@H](O)[C@@H]1O [GITOXIN] | -4.086 | -4.086 | -4.086 | 4.54 | 21 | 12 | 28.7 | 40.3 | – | – | – | – | – |
| CO[C@H]1[C@H](O)[C@H](O[C@H]2CC[C@@]3(C)[C@H](CC[C@@H]4[C@@H]3CC[C@]3(C)[C@@H](C5=CC(=O)OC5)CC[C@]43O)C2)O[C@@H](C)[C@@H]1O [NERIIFOLIN] | -3.045 | -3.045 | – | 3.38 | – | – | – | – | 17 | 17 | 30.8 | 36.1 | SD from mean (pilot screen) (ATXN2-luc [2]; [12]): -3.045 |
| CO[C@H]1C[C@H](O[C@H]2CC[C@]3(C=O)[C@H]4CC[C@]5(C)[C@@H](C6=CC(=O)OC6)CC[C@]5(O)[C@@H]4CC[C@]3(O)C2)O[C@H](C)[C@H]1O [CYMARIN] | -4.099 | -4.099 | -4.099 | 4.55 | – | – | – | – | 14 | 16 | 54.2 | 59.3 | – |
| C[C@H]1O[C@@H](O[C@H]2CC[C@]3(C=O)[C@H]4CC[C@]5(C)[C@@H](C6=CC(=O)OC6)CC[C@]5(O)[C@@H]4CC[C@]3(O)C2)C[C@H](O)[C@@H]1O [Helveticoside] | -2.733 | -2.733 | – | 3.07 | – | – | – | – | 118 | 41 | 99 | 37.1 | SD from mean (pilot screen) (ATXN2-luc [2]; [12]): -2.733; AC50 (ATXN2-luc [5]; logarithm of AC50 (negative values), read-out: Log AC50 (converted)): 3.55 µM; AC50 (ATXN2-luc [5]; read-out: AC50): 3.55 µM; Efficacy (ATXN2-luc [5]; curve-fit parameter): -86.9163; Inf Activity (ATXN2-luc [5]; curve-fit parameter): -84.4727 |
| C[C@]12CC[C@H]3[C@@H](CC[C@]4(O)C[C@@H](O)CC[C@]34C=O)[C@@]1(O)CC[C@@H]2C1=CC(=O)OC1 [STROPHANTHIDIN] | – | -4.451 | -4.451 | 4.95 | – | – | – | – | 16 | 15 | 40.1 | 45.5 | – |
